Experimental data reported in publication PMC4413215, “New Prenylated Aeruginosin, Microphycin, Anabaenopeptin and Micropeptin Analogues from a Microcystis Bloom Material Collected in Kibbutz Kfar Blum, Israel” (Marine Drugs, 2015).
Like-named read-outs stand apart in the source and are kept apart here. *1 amine or outer side, *2 acyl side, *3 side chain or, on linkers, in order; H or OH if unused. Where a SMILES comes first, the peptide text is derived from it. Bridges are numbered along the chain shown (N, C = ends). [ ]: non-standard residue; d: D form. NMehTyr = CN[C@@H](CCc1ccc(O)cc1)C(=O)O; hPhe = N[C@@H](CCc1ccccc1)C(=O)O; CO = O=C([*:1])[*:2]

How the values were obtained:
chymotrypsin = chymotrypsin (Bos taurus, UniProt P00766); assay: Protease inhibition assay: chymotrypsin; assay type: biochemical; conditions: for inhibition of chymotrypsin, in words: discussion of Table 5
Protocol: (§1) Optical rotation values were obtained on a Jasco P-1010 polarimeter at the sodium D line (589 nm; concentrations are reported in g/100 mL. UV spectra were recorded on an Agilent 8453 spectrophotometer (Santa Clara, California, CA, USA). IR spectra were recorded on a Bruker Tensor 27 FT-IR instrument (Billerica, Massachusetts, MA, USA). NMR spectra were recorded on a Bruker DRX-500 spectrometer at 500.13 MHz for ^1H and 125.76 MHz for ^13C and a Bruker Avance 400 Spectrometer at 400.13 MHz for ^1H, 100.62 MHz for ^13C (Billerica, Massachusetts, MA, USA). DEPT, COSY-45, gTOCSY, gROESY, gHSQC, gHMQC and gHMBC spectra were recorded using standard Bruker pulse sequences. Mass spectra and MS/MS analyses were recorded on a Waters MaldiSynapt instrument (Milford, Massachusetts, MA, USA). HPLC separations were performed on a Jasco HPLC system (Halifax, Nova-Scotia, NS, Canada) (Model PU-2080-plus pump, Model LG-2080-04 Quaternary gradient unit and Model MD-2010-plus Multi-wavelength detector). An Elisa ELx808 reader (Bio-Tek Instruments, Inc (Winooski, VT, USA)) was used for protease inhibition assays.
(§2) The procedures used to determine the inhibitory activity of the new compounds on trypsin and chymotrypsin were described in a previous paper. The range of concentrations used in the assays was between 45.5 μM and 0.011 μM.

trypsin [1] = target: T1, trypsin (Bos taurus, UniProt P00760); assay: Protease inhibition assay: trypsin; assay type: biochemical; conditions: discussion of Table 5
T1 sequence (P00760 24-246): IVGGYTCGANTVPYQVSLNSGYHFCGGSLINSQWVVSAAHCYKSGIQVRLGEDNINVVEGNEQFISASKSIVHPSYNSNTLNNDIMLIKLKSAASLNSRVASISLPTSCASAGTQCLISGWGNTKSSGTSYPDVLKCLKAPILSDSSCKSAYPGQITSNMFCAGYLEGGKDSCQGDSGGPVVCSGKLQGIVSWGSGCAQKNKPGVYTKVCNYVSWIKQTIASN
Protocol: as §1, §2

trypsin [2] = target: T1, trypsin; set-up: method as in PMID 22280481; conditions: read-out: IC50 (against trypsin); cited from earlier work

SMILES | IC50 (chymotrypsin) | also measured
CC(C)=CCN(CCCCNC(=O)C1CC2CCC(O)CC2N1C(=O)C(Cc1ccccc1)NC(=O)C(O)Cc1ccc(O)cc1)C(=N)N (centres unmarked) [Aeruginosin KB676 (1), Aeruginosin KB676] | – | IC50 (chymotrypsin; concentration range 45.5 μM to 0.011 μM, read-out: Chymotrypsin (IC50 in μM)): > 45.5 µM; inhibition of trypsin, in words (trypsin [1]): weak inhibitory activity
CC[C@H](C)[C@@H]1NC(=O)[C@H](NC(=O)N[C@@H](CCCNC(=N)N)C(=O)O)CCCCNC(=O)[C@H]([C@@H](C)CC)NC(=O)[C@H](CCc2ccc(O)cc2)N(C)C(=O)[C@H](CCc2ccccc2)NC1=O [Anabaenopeptin KB906 (3), Anabaenopeptin KB906] ({Arg-CO}-[dK]I[hPhe][NMehTyr]I; lactam 1-C) | > 45.5 µM | –
CCCC(=O)N[C@@H](CC(=O)O)C(=O)N[C@@H]1C(=O)N[C@@H](CCCNC(=N)N)C(=O)N[C@H]2CC[C@@H](O)N(C2=O)[C@@H](C(C)C)C(=O)N(C)[C@@H](Cc2ccccc2)C(=O)N[C@@H]([C@@H](C)CC)C(=O)O[C@@H]1C [Micropeptin KB928 (5), Micropeptin KB928] | > 45.5 µM | –
CCCC(=O)N[C@@H](CC(=O)OC)C(=O)N[C@@H]1C(=O)N[C@@H](CCCNC(=N)N)C(=O)N[C@H]2CC[C@@H](OC)N(C2=O)[C@@H](C(C)C)C(=O)N(C)[C@@H](Cc2ccccc2)C(=O)N[C@@H]([C@@H](C)CC)C(=O)O[C@@H]1C [Micropeptin KB956 (6), Micropeptin KB956] | > 45.5 µM | –
CCCCCC(=O)N[C@@H](CC(=O)OC)C(=O)N[C@@H]1C(=O)N[C@@H](CCCNC(=N)N)C(=O)N[C@H]2CC[C@@H](O)N(C2=O)[C@@H](C(C)C)C(=O)N(C)[C@@H](Cc2ccccc2)C(=O)N[C@@H]([C@@H](C)CC)C(=O)O[C@@H]1C [Micropeptin KB970A (7), Micropeptin KB970A] | > 45.5 µM | –
CCCCCC(=O)N[C@@H](CC(=O)O)C(=O)N[C@@H]1C(=O)N[C@@H](CCCNC(=N)N)C(=O)N[C@H]2CC[C@@H](OC)N(C2=O)[C@@H](C(C)C)C(=O)N(C)[C@@H](Cc2ccccc2)C(=O)N[C@@H]([C@@H](C)CC)C(=O)O[C@@H]1C [Micropeptin KB970B (8), Micropeptin KB970B] | > 45.5 µM | –
CCCCCC(=O)N[C@@H](CC(=O)OC)C(=O)N[C@@H]1C(=O)N[C@@H](CCCNC(=N)N)C(=O)N[C@H]2CC[C@@H](OC)N(C2=O)[C@@H](C(C)C)C(=O)N(C)[C@@H](Cc2ccccc2)C(=O)N[C@@H](C(C)C)C(=O)O[C@@H]1C [Micropeptin KB970C (10), Micropeptin KB970C] | > 45.5 µM | –
CCCCCC(=O)N[C@@H](CC(=O)OC)C(=O)N[C@@H]1C(=O)N[C@@H](CCCNC(=N)N)C(=O)N[C@H]2CC[C@@H](OC)N(C2=O)[C@@H](C(C)C)C(=O)N(C)[C@@H](Cc2ccccc2)C(=O)N[C@@H]([C@@H](C)CC)C(=O)O[C@@H]1C [Micropeptin KB984 (9), Micropeptin KB984] | > 45.5 µM | –
CC[C@H](C)[C@H]1C(=O)N(C)[C@@H](Cc2ccccc2)C(=O)N[C@@H](C(C)C)C(=O)O[C@H](C)[C@H](NC(=O)[C@H](CC(N)=O)NC(=O)[C@H](O)Cc2ccc(O)cc2)C(=O)N[C@@H](CC(C)C)C(=O)N[C@H]2CC[C@@H](OC)N1C2=O [Micropeptin KB992 (12), Micropeptin KB992] | 0.87 µM | inhibition of chymotrypsin, in words (chymotrypsin): inhibition of chymotrypsin
CC[C@H](C)[C@@H]1NC(=O)[C@H](Cc2ccccc2)N(C)C(=O)[C@H](C(C)C)N2C(=O)[C@H](CC[C@H]2O)NC(=O)[C@H](C[C@H]2C=C[C@H](O)CC2)NC(=O)[C@@H](NC(=O)[C@H](CCC(N)=O)NC(=O)[C@H](O)Cc2ccc(O)cc2)[C@@H](C)OC1=O [Micropeptin KB1046 (13), Micropeptin KB1046] | 0.22 µM | inhibition of chymotrypsin, in words (chymotrypsin): inhibition of chymotrypsin
CCCCCC(=O)N[C@@H](CC(=O)OC)C(=O)N[C@@H]1C(=O)N[C@@H](CCCNC(=N)N)C(=O)N[C@H]2CC[C@@H](OC)N(C2=O)[C@@H]([C@@H](C)CC)C(=O)N(C)[C@@H](Cc2ccc(O)c(Cl)c2)C(=O)N[C@@H]([C@H](C)CC)C(=O)O[C@@H]1C [Micropeptin KB1048 (11), Micropeptin KB1048] | 0.63 µM | inhibition of chymotrypsin, in words (chymotrypsin): inhibition of chymotrypsin
CC(C)C[C@@H]1NC(=O)[C@@H]2CCCN2C(=O)[C@H](C)NC(=O)[C@H](CCC(N)=O)NC(=O)[C@H](C)NC(=O)[C@H](Cc2ccccc2)NC(=O)[C@H](Cc2ccccc2)NC(=O)[C@H](Cc2ccccc2)NC1=O [Microphycin KB921 (2), Microphycin KB921] (cyclo(APLFFFAQ)) | > 45.5 µM | –
NC(N)=NCCCCNC(=O)[C@H]1C[C@H]2CC[C@@H](O)C[C@H]2N1C(=O)[C@@H](Cc1ccccc1)NC(=O)[C@H](O)Cc1ccc(O)cc1 [aeruginosin KT608B] | – | IC50 (trypsin [2]): 1300 nM
